Source: publication PMC8222394 (Nature Communications, 2021)
Values joined by “and” are separate entries in the source; they are usually repeats but may differ in a detail not shown here. Equal values may be shown once. Read-outs that look alike come from different tables or passages of the source.

Legend:
[1] = set-up: method as in Selleck L1300 library file; conditions: ref Selleck L1300 library file, cited from earlier work
B-RafV600E = test system: B-RafV600E; set-up: method as in selleckchem.com; conditions: ref selleckchem.com, cited from earlier work
[2] = test system: TMPRSS2-HiBiT-BEAS-2B cells
TMPRSS2 = TMPRSS2 (Homo sapiens, UniProt O15393); test: TMPRSS2 activity assay (Boc-Gln-Ala-Arg-MCA fluorescence); type: biochemical; set-up: purchased LSBio; conditions: replicates
Chain of TMPRSS2 (O15393 106-492): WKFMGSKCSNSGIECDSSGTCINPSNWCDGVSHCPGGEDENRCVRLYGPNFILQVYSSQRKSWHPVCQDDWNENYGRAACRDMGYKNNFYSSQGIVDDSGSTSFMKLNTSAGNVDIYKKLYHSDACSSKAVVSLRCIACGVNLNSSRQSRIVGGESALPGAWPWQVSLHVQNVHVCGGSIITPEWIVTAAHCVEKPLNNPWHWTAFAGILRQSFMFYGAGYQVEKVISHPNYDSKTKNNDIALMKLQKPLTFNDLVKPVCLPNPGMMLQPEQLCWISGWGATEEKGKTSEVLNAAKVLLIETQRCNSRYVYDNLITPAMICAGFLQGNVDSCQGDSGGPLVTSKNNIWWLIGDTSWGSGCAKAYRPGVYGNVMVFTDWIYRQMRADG
Protocol: Fluorescence (380-15 nm excitation/470-20 nm emission) of the samples was monitored over 4:45 h and the slope of the curves was calculated by linear regression analysis and used as output for TMPRSS2 activity.

SARS-CoV-2 pseudovirus [3] = type: cell-based
in vitro = conditions: human
SARS-CoV-2 pseudovirus [4] = test: microbe, parasite or virus in culture; type: cell-based; conditions: for IC50: Severe acute respiratory syndrome-related coronavirus, Caco-2, read-out: In vitro IC50 (viral entry)
[5] = human, cited from earlier work

In the case of CCCS(=O)(=O)Nc1ccc(F)c(C(=O)c2c[nH]c3ncc(-c4ccc(Cl)cc4)cc23)c1F [Vemurafenib (PLX4032, RG7204), Vemurafenib], the “DMSO (mM)Max Solubility” value [1] is listed as 197.99 mM, the “DMSO (mg/mL)Max Solubility” value [1] is listed as 97.00 mg/mL and the “water (mg/mL)Max Solubility” value ([1]; water) is listed as less than 1 mg/mL. The IC50 (B-RafV600E; cell-free assay) was 0.031 µM and the “selectivity for B-RafV600E over wild-type B-Raf” value (B-RafV600E; enzymatic assays) was 10 fold.

For C[C@H]1O[C@H](O[C@H]2[C@H](O)[C@@H](O)[C@@H](O[C@H]3[C@H](O)[C@@H](O)C(O)O[C@@H]3CO)O[C@@H]2CO)[C@H](O)[C@@H](O)[C@@H]1N[C@H]1C=C(CO)[C@@H](O)[C@H](O)[C@H]1O (stereo partly drawn) [Acarbose], the “DMSO (mM)Max Solubility” value [1] is given as 154.89 mM, the “DMSO (mg/mL)Max Solubility” value [1] is given as 100.00 mg/mL and the “water (mM)Max Solubility” value ([1]; water) is given as 154.89 mM. For the same compound, the “water (mg/mL)Max Solubility” value ([1]; water) was 100.00 mg/mL.

In the case of CNC(=O)c1ccccc1Sc1ccc2c(/C=C/c3ccccn3)n[nH]c2c1 [Axitinib], the “DMSO (mM)Max Solubility” value [1] is given as 90.56 mM, the “DMSO (mg/mL)Max Solubility” value [1] is given as 35.00 mg/mL and the “water (mg/mL)Max Solubility” value ([1]; water) is given as less than 1 mg/mL.

With Cc1coc2c1C(=O)C(=O)c1c-2ccc2c1CCCC2(C)C [Tanshinone IIA] the “ATP Glo” value ([2]; conc 0.01) was 1.137 and 1.427 and 1.128.

Verteporfin [reference compound] showed a CC50 [2] greater than 10 µM.

With COC(=O)Nc1nc2cc(C(=O)c3ccc(F)cc3)ccc2[nH]1 [Flubendazole] the “ATP Glo” value ([2]; conc 3) was 0.991 and 1.045 and 1.023.

In the case of CN(C)C(=O)COC(=O)Cc1ccc(OC(=O)c2ccc(NC(=N)N)cc2)cc1 [Camostat], the “TMPRSS2 activity (FigS9 source data)” value (TMPRSS2; 0.08 µM) is reported as -0.0086 and -0.0028 and 0.0044 and -0.0059, the “TMPRSS2 activity (FigS9 source data)” value (TMPRSS2; 0.4 µM) is reported as -0.037 and -0.0342 and -0.033 and -0.0254 and the “TMPRSS2 activity (FigS9 source data)” value (TMPRSS2; 2 µM) is reported as -0.0401 and -0.0361 and -0.044 and -0.0525. The “signal relative to Vehicle (FigS7 source data)” value (“signal relative to Vehicle” below) (SARS-CoV-2 pseudovirus [3]) was 0.7432 and 0.6624 and 0.6548.

In the case of CC1(C)CCC(CN2CCN(c3ccc(C(=O)NS(=O)(=O)c4ccc(NCC5CCOCC5)c([N+](=O)[O-])c4)c(Oc4cnc5[nH]ccc5c4)c3)CC2)=C(c2ccc(Cl)cc2)C1 [Venetoclax], the CC50 (in vitro) is reported as greater than 10 µM, the “viral entry” value (SARS-CoV-2 pseudovirus [4]) is reported as “effective in reducing viral entry” and the IC50 (SARS-CoV-2 pseudovirus [4]) is reported as greater than 10 µM. The “signal relative to Vehicle” value (SARS-CoV-2 pseudovirus [3]) was 0.618 and 0.6416 and 0.6544 and the Cmax ([5]; 400 mg Oral (QD)) was 1270 nM.

With Cc1nc(Nc2ncc(C(=O)Nc3c(C)cccc3Cl)s2)cc(N2CCN(CCO)CC2)n1 [Dasatinib] the CC50 (in vitro) was greater than 10 µM, the “viral entry” value (SARS-CoV-2 pseudovirus [4]) was “effective in reducing viral entry” and the IC50 (SARS-CoV-2 pseudovirus [4]) was greater than 10 µM. For the same compound, the “signal relative to Vehicle” value (SARS-CoV-2 pseudovirus [3]) was 0.6399 and 0.7584 and 0.6593 and the Cmax ([5]; 140 mg Oral (QD)) was 307 nM.

For Cc1nc(C(=O)NCC(=O)O)c(O)c2ccc(Oc3ccccc3)cc12 [Roxadustat (FG-4592), Roxadustat], the “DMSO (mM)Max Solubility” value [1] is given as 198.67 mM, the “DMSO (mg/mL)Max Solubility” value [1] is given as 70.00 mg/mL and the “water (mg/mL)Max Solubility” value ([1]; water) is given as less than 1 mg/mL.

For COCCOC(=O)C1=C(C)NC(C)=C(C(=O)OC/C=C/c2ccccc2)C1c1cccc([N+](=O)[O-])c1 (stereo not drawn) [Cilnidipine], the CC50 (in vitro) was greater than 10 µM, the “viral entry” value (SARS-CoV-2 pseudovirus [4]) was “effective in reducing viral entry” and the IC50 (SARS-CoV-2 pseudovirus [4]) was roughly 3 µM. The Cmax ([5]; 10 mg Oral (QD)) was 18.1 nM.
